Results: patent US20240140975A1, “ANTIVIRAL APPLICATION OF NUCLEOSIDE ANALOG OR COMBINATION FORMULATION CONTAINING NUCLEOSIDE ANALOG” (priority 2020, published 2024)
Like-named read-outs stand apart in the source and are kept apart here.

Tests used:
[1] = tested on: 2019 novel coronavirus (SARS-CoV-2); assay: microbe, parasite or virus in culture; type: cell-based; conditions: for inhibition at 5 µM: read-out: Inhibition Rate (5 μM); for inhibition at 10 µM: read-out: Inhibition Rate (10 μM)
[2] = tested on: respiratory syncytial virus (RSV); assay: Cytopathic effect (CPE) assay, RSV in HEp-2; type: cell-based; conditions: human respiratory syncytial virus, HEp-2 cells
[3] = in vitro; conditions: human
[4] = tested on: human coronavirus OC43 (HCoV OC43); assay: Cytopathic effect (CPE) assay, HCoV OC43 in Huh7; type: cell-based; conditions: Betacoronavirus 1, OC43, Huh-7, Huh7 cells
Description: The inhibitory effects of compounds on the replication of respiratory syncytial virus (RSV), human coronavirus OC43, influenza A virus, Zika virus (Zika) were tested using cytopathic effect (CPE) assay.
Experimental cells were inoculated in 96-well cell culture plate at a certain cell density, and cultured in an incubator (5% CO2, 37° C.) overnight. Compounds and viruses were added on the second day. […] Then cell viability of each well was detected using Cell Titer-Glo or CCK-8. […] The cytotoxicity test method was the same as the corresponding antiviral test method without virus infection.
The antiviral activity and cytotoxicity of the compounds are respectively indicated by the inhibition rate (%) of compounds on virus-induced cellular viral effects and cell viability (%). Calculating formulas are as follows:
Inhibition rate (%)=(reading value of test well—average value of virus control)/(average value of cell control—average value of virus control)×100;
EC50 and CC50 value are calculated by Prism software, and the inhibition curve fitting method is “log (inhibitor) vs. response—Variable slope”.

[5] = in vivo; conditions: male, CD-1, mouse, po, 50 mg/kg
[6] = Pharmacokinetic evaluation in mice; conditions: male, CD-1, mouse, in vivo, po, 50 mg/kg
[7] = in vitro; conditions: human; remark: listed apart in the source
[8] = tested on: porcine epidemic diarrhea virus (PEDV); assay: Anti-porcine epidemic diarrhea virus (PEDV) activity test in Vero cells, fluorescence quantitative PCR; type: cell-based; conditions: 36 h
[9] = tested on: dengue fever virus (DENV); assay: Dengue virus plaque reduction test in Vero cells; type: cell-based; conditions: for inhibition at 5 µM: Dengue virus, read-out: DENV (Vero) 5 μM (inhibition rate), 5 μM, plaque reduction
[10] = molecular target: RNA-dependent RNA polymerase (RdRp) of 2019 novel coronavirus (SARS-CoV-2) (Severe acute respiratory syndrome coronavirus 2 (2019-nCoV) (SARS-CoV-2), UniProt P0DTD1); assay: Inhibition of RdRp of novel coronavirus, fluorescence method; type: biochemical; conditions: for inhibition of the activity of RdRp (in words): RdRp of novel coronavirus
Description: According to the method reported in the literature (Virus Genes, 2015, 50:498-504), the inhibitory activity of the compound of the invention on RNA-dependent RNA polymerase (RdRp) of 2019 novel coronavirus (SARS-CoV-2) was determined using the fluorescence method: after the solution of the novel coronavirus RdRp, substrate, compound solution, buffer solution, etc were co-incubated for 1 hour, fluorescent DNA binding dye was added. 10 minutes later, data collection was carried out and the inhibitory activities of the compounds on RdRp were determined.

[11] = Severe acute respiratory syndrome coronavirus 2, Vero C1008, 24 h, 5 μM, Vero E6 cells, 24 h p.i.
[12] = Severe acute respiratory syndrome coronavirus 2, Vero C1008, Vero E6 cells, 24 h p.i., read-out: EC50
[13] = Severe acute respiratory syndrome coronavirus 2, Vero C1008, 24 h, 10 μM, Vero E6 cells, 24 h p.i.
[14] = Porcine epidemic diarrhea virus, Vero
[15] = Severe acute respiratory syndrome coronavirus 2, Vero C1008, 24 h

[2H]C([2H])(O)[C@H]1O[C@@](C#N)(c2ccc3c(N)ncnn23)[C@H](O)[C@@H]1OC(=O)C(C)C [Compound A164]
inhibition at 5 µM [1, 11]: 99%
EC50 [1, 12]: 270 nM

[2H]C([2H])(OC(=O)C(C)C)[C@H]1O[C@@](C#N)(c2ccc3c(N)ncnn23)[C@H](O)[C@@H]1O [Compound A75]
inhibition at 5 µM [1, 11]: 99%
EC50 [2]: 490 nM
CC50 [3]: > 10000 nM

[2H]C([2H])(O)[C@H]1O[C@@](C#N)(c2ccc3c(N)ncnn23)[C@H](O)[C@@H]1OC(=O)[C@@H](N)C(C)C [Compound A214]
inhibition at 5 µM [1, 11]: 99%
EC50 [1, 12]: 110 nM

NC(=O)c1nc(F)cnc1O [Favipiravir, reference compound]
inhibition at 5 µM [1, 11]: 0%
inhibition at 10 µM [1, 13]: < 20%

[2H]c1cc([C@]2(C#N)O[C@H](C([2H])([2H])OC(=O)[C@@H](N)C(C)C)[C@@H](O)[C@H]2O)n2ncnc(N)c12 [Compound A181]
inhibition at 5 µM [1, 11]: > 98%

[2H]C([2H])(O)[C@H]1O[C@@](C#N)(c2cc(F)c3c(N)ncnn23)[C@H](O)[C@@H]1O [Compound A12]
inhibition at 5 µM [1, 11]: > 98%

[2H]C([2H])(O)[C@H]1O[C@@](C#N)(c2ccc3c(N)ncnn23)[C@H](O)[C@@H]1O [Compound A10]
EC50 [4]: 1980 nM
half-life [5]: 1.3 h
AUC(0-inf) [6]: 4620 ng·h/mL
AUC(0-t) [6]: 4550 ng·h/mL
Cmax [6]: 1760 ng/mL
Tmax [6]: 0.8 h
CC50 [7]: > 10000 nM
inhibition at 5 µM [1, 11]: 99%
EC50 [1, 12]: 430 nM
EC50 [2]: 630 nM
CC50 [3]: > 10000 nM
EC50 [8, 14]: 6 nM

NC(=O)[C@@]1(c2ccc3c(N)ncnn23)O[C@H](CO)[C@@H](O)[C@H]1O [Compound A112]
inhibition at 10 µM [1, 13]: < 50%

CC(C)C(=O)OC[C@H]1O[C@@](C#N)(c2ccc3c(N)ncnn23)[C@H](O)[C@@H]1O [Compound A50]
Inhibition Rate (5 μM) ([1]; 5 μM, Vero E6 cells, 24 h p.i.): 99%
Inhibition Rate (10 μM) ([1]; 10 μM, Vero E6 cells, 24 h p.i.): 99%
EC50 ([1]; Vero E6 cells, 24 h p.i., read-out: EC50): 230 nM
EC50 [8]: 2 nM

NC(=O)c1ncn([C@@H]2O[C@H](CO)[C@@H](O)[C@H]2O)n1 [Ribavirin, reference compound]
DENV (Vero) value printed without unit ([9]; column head 5 μM, no % printed): 17.4

[2H]c1cc([C@]2(C#N)O[C@H](C([2H])([2H])OC(=O)C(C)C)[C@@H](O)[C@H]2O)n2ncnc(N)c12 [Compound A180]
inhibition at 5 µM [1, 11]: > 98%

[2H]c1cc([C@]2(C#N)O[C@H](C([2H])([2H])OC(=O)C(C)C)[C@@H](OC(=O)C(C)C)[C@H]2OC(=O)C(C)C)n2ncnc(N)c12 [Compound A196]
inhibition at 5 µM [1, 11]: > 98%

[2H]c1cc([C@]2(C#N)O[C@H](C([2H])([2H])O)[C@@H](OC(=O)C(C)C)[C@H]2O)n2ncnc(N)c12 [Compound A188]
inhibition at 5 µM [1, 11]: > 98%

[2H]C([2H])(OC(=O)[C@@H](N)C(C)C)[C@H]1O[C@@](C#N)(c2ccc3c(N)ncnn23)[C@H](O)[C@@H]1O [Compound A77]
inhibition at 5 µM [1, 11]: > 98%

[2H]c1cc([C@]2(C#N)O[C@H](C([2H])([2H])O)[C@@H](OC(=O)[C@@H](N)C(C)C)[C@H]2O)n2ncnc(N)c12 [Compound A215]
inhibition at 5 µM [1, 11]: > 98%

[2H]C([2H])(OP(=O)(O)OP(=O)(O)OP(=O)(O)O)[C@H]1O[C@@](C#N)(c2ccc3c(N)ncnn23)[C@H](O)[C@@H]1O [Compound A107]
inhibition of the activity of RdRp (in words) [10]: significantly inhibit the activity of RdRp

CC(C)[C@H](N)C(=O)O[C@H]1[C@@H](O)[C@](C#N)(c2ccc3c(N)ncnn23)O[C@@H]1CO [Compound A212]
inhibition at 5 µM [1, 11]: 99%
inhibition at 10 µM [1, 13]: 99%
EC50 [1, 12]: 110 nM

[2H]c1cc([C@]2(C#N)O[C@H](COP(=O)(O)OP(=O)(O)OP(=O)(O)O)[C@@H](O)[C@H]2O)n2ncnc(N)c12 [Compound A106]
inhibition of the activity of RdRp (in words) [10]: significantly inhibit the activity of RdRp

N#C[C@@]1(c2cc(I)c3c(N)ncnn23)O[C@H](CO)[C@@H](O)[C@H]1O [Compound A3]
inhibition at 10 µM [1, 13]: < 50%

N#C[C@@]1(c2ccc3c(N)ncnn23)O[C@H](COP(=O)(O)OP(=O)(O)OP(=O)(O)O)[C@@H](O)[C@H]1O [Compound A109]
EC50 [1, 15]: 580 nM
inhibition at 5 µM [1, 15]: 99%
inhibition at 10 µM [1, 15]: 99%

CCC(CC)COC(=O)[C@H](C)N[P@](=O)(OC[C@H]1O[C@@](C#N)(c2cc(F)c3c(N)ncnn23)[C@H](O)[C@@H]1O)Oc1ccccc1 [Compound A84]
inhibition at 10 µM [1, 15]: 82%

Nc1ncnn2c([C@]3(C4CC4)O[C@H](CO)[C@@H](O)[C@H]3O)ccc12 [Compound A28]
inhibition at 5 µM [9]: 6%
EC50 [8, 14]: 1100 nM

[2H]C([2H])(OC(=O)C(C)C)[C@H]1O[C@@](C#N)(c2ccc3c(N)ncnn23)[C@H](OC(=O)C(C)C)[C@@H]1OC(=O)C(C)C [Compound A171]
inhibition at 5 µM [1, 11]: > 98%

[2H]c1cc([C@]2(C#N)O[C@H](CO)[C@@H](OC(=O)[C@@H](N)C(C)C)[C@H]2O)n2ncnc(N)c12 [Compound A213]
EC50 [4]: 1970 nM
CC50 [7]: > 10000 nM
inhibition at 5 µM [1, 11]: 99%
EC50 [1, 12]: 100 nM
EC50 [2]: 760 nM
CC50 [3]: > 10000 nM

N#C[C@@]1(c2ccc3c(=O)[nH]cnn23)O[C@H](CO)[C@@H](O)[C@H]1O [Compound A4]
inhibition at 10 µM [1, 13]: < 50%

N#C[C@@]1(c2cc(F)c3c(N)ncnn23)O[C@H](CO)[C@@H](O)[C@H]1O [Compound A1]
inhibition at 5 µM [1, 11]: 80%
inhibition at 10 µM [1, 13]: 97%

[2H]c1cc([C@]2(C#N)O[C@H](COC(=O)[C@@H](N)C(C)C)[C@@H](O)[C@H]2O)n2ncnc(N)c12 [Compound A72]
inhibition at 5 µM [1, 11]: 99%
EC50 [2]: 770 nM
CC50 [3]: > 10000 nM

[2H]c1cc([C@]2(C#N)O[C@H](CO)[C@@H](OC(=O)C(C)C)[C@H]2O)n2ncnc(N)c12 [Compound A144]
EC50 [4]: 1880 nM
CC50 [7]: > 10000 nM
inhibition at 5 µM [1, 11]: 99%
EC50 [1, 12]: 240 nM
EC50 [2]: 470 nM
CC50 [3]: > 10000 nM
EC50 [8, 14]: < 100 nM

[2H]c1cc([C@]2(C#N)O[C@H](C([2H])([2H])OP(=O)(O)OP(=O)(O)OP(=O)(O)O)[C@@H](O)[C@H]2O)n2ncnc(N)c12 [Compound A198]
inhibition of the activity of RdRp (in words) [10]: significantly inhibit the activity of RdRp

N#C[C@@]1(c2cc(Cl)c3c(N)ncnn23)O[C@H](CO)[C@@H](O)[C@H]1O [Compound A2]
inhibition at 10 µM [1, 13]: < 50%

N#C[C@@]1(c2ccc3c(N)ncnn23)O[C@H](CO)[C@@H](O)[C@H]1O [Compound A216]
inhibition at 5 µM [9]: 24%
EC50 [8]: 1920 nM

CC(C)C(=O)OC[C@H]1O[C@@](C#N)(c2ccc3c(N)ncnn23)[C@H](OC(=O)C(C)C)[C@@H]1OC(=O)C(C)C [Compound A131]
inhibition at 5 µM [1, 11]: > 98%
EC50 [8, 14]: < 100 nM

CC(C)[C@H](N)C(=O)OC[C@H]1O[C@@](C#N)(c2ccc3c(N)ncnn23)[C@H](O)[C@@H]1O [Compound A52]
inhibition at 5 µM [1, 11]: > 98%

N#C[C@@]1(c2cc(F)c3c(N)ncnn23)O[C@H](COP(=O)(O)OP(=O)(O)OP(=O)(O)O)[C@@H](O)[C@H]1O [Compound A102]
IC50 ([10]; RdRp of 2019 novel coronavirus): 1000 to 10000 nM
inhibition of the activity of RdRp (in words) [10]: significantly inhibit the activity of RdRp

CO[C@@H]1[C@H](O)[C@@H](CO)O[C@@]1(C#N)c1ccc2c(N)ncnn12 [Compound A221]
inhibition at 5 µM [9]: 51%
EC50 [8, 14]: 1350 nM

CCC(CC)COC(=O)[C@H](C)N[P@](=O)(OC[C@H]1O[C@@](C#N)(c2ccc3c(N)ncnn23)[C@H](O)[C@@H]1O)Oc1ccccc1 [Remdesivir, reference compound]
EC50 [4]: 21 nM
CC50 [7]: 25700 nM
inhibition at 5 µM [1, 11]: 65%
inhibition at 10 µM [1, 13]: 99%
EC50 [1, 12]: 2000 nM
inhibition at 5 µM [9]: 100%

[2H]c1cc([C@]2(C#N)O[C@H](C([2H])([2H])O)[C@@H](OC(=O)C(C)C)[C@H]2O)n2ncnc(N)c12 [Compound A173]
EC50 [2]: 460 nM
CC50 [3]: > 10000 nM
